Measurements reported in patent US9422293B2 (priority 2006, dated 2016).
Counter-ions that a name gives are not always drawn.

Target: rat TRPV1 (Rattus norvegicus (Rat), UniProt O35433)
Conditions: read-out: Rat IC50

Sequence of rat TRPV1 (O35433 whole entry): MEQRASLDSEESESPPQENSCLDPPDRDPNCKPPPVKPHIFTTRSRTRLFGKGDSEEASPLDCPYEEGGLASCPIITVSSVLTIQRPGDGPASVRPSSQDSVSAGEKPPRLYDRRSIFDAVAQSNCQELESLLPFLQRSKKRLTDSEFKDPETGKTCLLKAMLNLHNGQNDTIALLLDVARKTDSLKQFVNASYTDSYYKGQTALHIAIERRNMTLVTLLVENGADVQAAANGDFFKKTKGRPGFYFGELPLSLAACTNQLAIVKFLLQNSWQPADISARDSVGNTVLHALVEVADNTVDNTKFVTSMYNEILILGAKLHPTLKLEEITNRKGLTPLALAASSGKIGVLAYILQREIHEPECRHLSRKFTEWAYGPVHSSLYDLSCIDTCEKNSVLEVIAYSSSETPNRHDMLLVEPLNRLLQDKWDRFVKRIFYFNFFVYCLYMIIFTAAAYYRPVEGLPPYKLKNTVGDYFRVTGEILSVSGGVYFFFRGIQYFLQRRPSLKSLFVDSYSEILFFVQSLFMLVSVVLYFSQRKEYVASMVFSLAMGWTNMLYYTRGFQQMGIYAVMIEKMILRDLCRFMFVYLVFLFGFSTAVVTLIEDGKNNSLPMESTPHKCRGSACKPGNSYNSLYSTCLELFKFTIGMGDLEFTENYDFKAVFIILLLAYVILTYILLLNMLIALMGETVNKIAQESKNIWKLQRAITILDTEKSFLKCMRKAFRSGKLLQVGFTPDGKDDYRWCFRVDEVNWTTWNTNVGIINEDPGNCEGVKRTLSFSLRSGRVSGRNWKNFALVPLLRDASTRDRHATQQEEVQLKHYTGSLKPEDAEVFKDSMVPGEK

| SMILES | IC50 |
| --- | --- |
| CC(C)c1nc2c(c(Nc3ccc(C(F)(F)F)cc3)n1)CCN(c1ncccc1[N+](=O)[O-])CC2 [Example 88, [2-Isopropyl-7-(3-nitro-pyridin-2-yl)-6,7,8,9-tetrahydro-5H-pyrimido[4,5-d]azepin-4-yl]-(4-trifluoromethyl-phenyl)-amine] | 960 nM |
| O=C1CN(c2nc3c(c(Nc4ccc(C(F)(F)F)cc4)n2)CCN(c2ncccc2C(F)(F)F)CC3)CCN1 [Example 90B, 4-[4-(4-Trifluoromethyl-phenylamino)-7-(3-trifluoromethyl-pyridin-2-yl)-6,7,8,9-tetrahydro-5H-pyrimido[4,5-d]azepin-2-yl]-piperazin-2-one trifluoroacetic acid salt] | > 6700 nM |
| O[C@@H]1CCCN(c2nc3c(c(Nc4ccc(C(F)(F)F)cc4)n2)CCN(c2ncccc2C(F)(F)F)CC3)C1 [Example 91B, (R)-1-[4-(4-Trifluoromethyl-phenylamino)-7-(3-trifluoromethyl-pyridin-2-yl)-6,7,8,9-tetrahydro-5H-pyrimido[4,5-d]azepin-2-yl]-piperidin-3-ol trifluoroacetic acid salt] | 240 nM |
| CN1CCN(c2nc3c(c(Nc4ccc(C(F)(F)F)cc4)n2)CCN(c2ncccc2C(F)(F)F)CC3)CC1 [Example 92B, [2-(4-Methyl-piperazin-1-yl)-7-(3-trifluoromethyl-pyridin-2-yl)-6,7,8,9-tetrahydro-5H-pyrimido[4,5-d]azepin-4-yl]-(4-trifluoromethyl-phenyl)-amine trifluoroacetic acid salt] | 270 nM |
| COCCN(C)c1nc2c(c(Nc3ccc(C(F)(F)F)cc3)n1)CCN(c1ncccc1C(F)(F)F)CC2 [Example 93B, N^2-(2-Methoxy-ethyl)-N^2-methyl-N^4-(4-trifluoromethyl-phenyl)-7-(3-trifluoromethyl-pyridin-2-yl)-6,7,8,9-tetrahydro-5H-pyrimido[4,5-d]azepine-2,4-diamine trifluoroacetic acid salt] | 37 nM |
| O[C@H]1CCCN(c2nc3c(c(Nc4ccc(C(F)(F)F)cc4)n2)CCN(c2ncccc2C(F)(F)F)CC3)C1 [Example 94B, (S)-1-[4-(4-Trifluoromethyl-phenylamino)-7-(3-trifluoromethyl-pyridin-2-yl)-6,7,8,9-tetrahydro-5H-pyrimido[4,5-d]azepin-2-yl]-piperidin-3-ol trifluoroacetic acid salt] | 190 nM |
| FC(F)(F)c1ccc(Nc2nc(NCC3CC3)nc3c2CCN(c2ncccc2C(F)(F)F)CC3)cc1 [Example 95B, N^2-Cyclopropylmethyl-N^4-(4-trifluoromethyl-phenyl)-7-(3-trifluoromethyl-pyridin-2-yl)-6,7,8,9-tetrahydro-5H-pyrimido[4,5-d]azepine-2,4-diamine trifluoroacetic acid salt] | 82 nM |
| CC(=O)c1ccc(Nc2nc(C(C)C)nc3c2CCN(c2ncccc2C(F)(F)F)CC3)cc1 [Example 96, 1-{4-[2-Isopropyl-7-(3-trifluoromethyl-pyridin-2-yl)-6,7,8,9-tetrahydro-5H-pyrimido[4,5-d]azepin-4-ylamino]-phenyl}-ethanone] | 340 nM |
| CC(C)c1nc2c(c(Nc3ccc(C#N)cc3)n1)CCN(c1ncccc1C(F)(F)F)CC2 [Example 97, 4-[2-Isopropyl-7-(3-trifluoromethyl-pyridin-2-yl)-6,7,8,9-tetrahydro-5H-pyrimido[4,5-d]azepin-4-ylamino]-benzonitrile] | 490 nM |
| FC(F)(F)c1ccc(Nc2nc(N3CCNCC3)nc3c2CCN(c2ncccc2C(F)(F)F)CC3)cc1 [Example 99B, [2-Piperazin-1-yl-7-(3-trifluoromethyl-pyridin-2-yl)-6,7,8,9-tetrahydro-5H-pyrimido[4,5-d]azepin-4-yl]-(4-trifluoromethyl-phenyl)-amine trifluoroacetic acid salt] | 7200 nM |
| FC(F)(F)c1ccc(Nc2nc(N3CCSCC3)nc3c2CCN(c2ncccc2C(F)(F)F)CC3)cc1 [Example 100, [2-Thiomorpholin-4-yl-7-(3-trifluoromethyl-pyridin-2-yl)-6,7,8,9-tetrahydro-5H-pyrimido[4,5-d]azepin-4-yl]-(4-trifluoromethyl-phenyl)-amine] | 31 nM |
| CC(C)c1nc2c(c(Nc3ccc(S(=O)(=O)C(F)(F)F)cc3)n1)CCN(c1ncccc1C(F)(F)F)CC2 [Example 101B, [2-Isopropyl-7-(3-trifluoromethyl-pyridin-2-yl)-6,7,8,9-tetrahydro-5H-pyrimido[4,5-d]azepin-4-yl]-(4-trifluoromethanesulfonyl-phenyl)-amine trifluoroacetic acid salt] | 990 nM |
| FC(F)(F)c1ccc(Nc2nc(N3CCN(Cc4ccccc4)CC3)nc3c2CCN(c2ncccc2C(F)(F)F)CC3)cc1 [Example 102, [2-(4-Benzyl-piperazin-1-yl)-7-(3-trifluoromethyl-pyridin-2-yl)-6,7,8,9-tetrahydro-5H-pyrimido[4,5-d]azepin-4-yl]-(4-trifluoromethyl-phenyl)-amine] | 170 nM |
| COC(=O)c1ccc(Nc2nc(C(C)C)nc3c2CCN(c2ncccc2C(F)(F)F)CC3)cc1 [Example 103, 4-[2-Isopropyl-7-(3-trifluoromethyl-pyridin-2-yl)-6,7,8,9-tetrahydro-5H-pyrimido[4,5-d]azepin-4-ylamino]-benzoic acid methyl ester] | 340 nM |
| CC(C)c1nc2c(c(Nc3ccc(SC(F)(F)F)cc3)n1)CCN(c1ncccc1C(F)(F)F)CC2 [Example 104, [2-Isopropyl-7-(3-trifluoromethyl-pyridin-2-yl)-6,7,8,9-tetrahydro-5H-pyrimido[4,5-d]azepin-4-yl]-(4-trifluoromethylsulfanyl-phenyl)-amine] | 320 nM |
| FC(F)(F)c1ccc(Nc2nc(N3CCCC3)nc3c2CCN(c2ncccc2C(F)(F)F)CC3)cc1 [Example 106, [2-Pyrrolidin-1-yl-7-(3-trifluoromethyl-pyridin-2-yl)-6,7,8,9-tetrahydro-5H-pyrimido[4,5-d]azepin-4-yl]-(4-trifluoromethyl-phenyl)-amine] | 62 nM |
| CC(C)c1nc2c(c(NCCc3ccc(Cl)c(Cl)c3)n1)CCN(c1ncccc1C(F)(F)F)CC2 [Example 108, [2-(3,4-Dichloro-phenyl)-ethyl]-[2-isopropyl-7-(3-trifluoromethyl-pyridin-2-yl)-6,7,8,9-tetrahydro-5H-pyrimido[4,5-d]azepin-4-yl]-amine] | 940 nM |
| CC(C)c1nc2c(c(Nc3ccc(Cl)c(Cl)c3)n1)CCN(c1ncccc1C(F)(F)F)CC2 [Example 109, (3,4-Dichloro-phenyl)-[2-isopropyl-7-(3-trifluoromethyl-pyridin-2-yl)-6,7,8,9-tetrahydro-5H-pyrimido[4,5-d]azepin-4-yl]-amine] | 580 nM |
| CC(C)c1nc2c(c(NCc3ccc(Cl)c(C(F)(F)F)c3)n1)CCN(c1ncccc1C(F)(F)F)CC2 [Example 115, N-{[4-Chloro-3-(trifluoromethyl)phenyl]methyl}-2-(1-methylethyl)-7-[3-(trifluoromethyl)pyridin-2-yl]-6,7,8,9-tetrahydro-5H-pyrimido[4,5-d]azepin-4-amine] | 3790 nM |
| CC(C)c1nc2c(c(NCc3ccc(C(F)(F)F)nc3)n1)CCN(c1ncccc1C(F)(F)F)CC2 [Example 116, 2-(1-Methylethyl)-7-[3-(trifluoromethyl)pyridin-2-yl]-N-{[6-(trifluoromethyl)pyridin-3-yl]methyl}-6,7,8,9-tetrahydro-5H-pyrimido[4,5-d]azepin-4-amine] | 7030 nM |
| CC(C)c1nc2c(c(NCc3ccc(C(F)(F)F)cc3)n1)CCN(c1ncccc1C(F)(F)F)CC2 [Example 117, 2-(1-Methylethyl)-N-{[4-(trifluoromethyl)phenyl]methyl}-7-[3-(trifluoromethyl)pyridin-2-yl]-6,7,8,9-tetrahydro-5H-pyrimido[4,5-d]azepin-4-amine] | 13500 nM |
| CC(C)c1nc2c(c(NCCc3ccccc3F)n1)CCN(c1ncccc1C(F)(F)F)CC2 [Example 118, N-[2-(2-Fluorophenyl)ethyl]-2-(1-methylethyl)-7-[3-(trifluoromethyl)pyridin-2-yl]-6,7,8,9-tetrahydro-5H-pyrimido[4,5-d]azepin-4-amine] | 500 nM |
| CC(C)c1nc2c(c(NCCc3ccccc3Br)n1)CCN(c1ncccc1C(F)(F)F)CC2 [Example 119, N-[2-(2-Bromophenyl)ethyl]-2-(1-methylethyl)-7-[3-(trifluoromethyl)pyridin-2-yl]-6,7,8,9-tetrahydro-5H-pyrimido[4,5-d]azepin-4-amine] | 1220 nM |
| CC(C)c1nc2c(c(NCc3c(Cl)cccc3Cl)n1)CCN(c1ncccc1C(F)(F)F)CC2 [Example 120, N-[(2,6-Dichlorophenyl)methyl]-2-(1-methylethyl)-7-[3-(trifluoromethyl)pyridin-2-yl]-6,7,8,9-tetrahydro-5H-pyrimido[4,5-d]azepin-4-amine] | 12000 nM |
| CC(C)c1nc2c(c(NC3CCC(C(C)(C)C)CC3)n1)CCN(c1ncccc1C(F)(F)F)CC2 (stereo not shown) [Example 122, N-[4-(1,1-Dimethylethyl)cyclohexyl]-2-(1-methylethyl)-7-[3-(trifluoromethyl)pyridin-2-yl]-6,7,8,9-tetrahydro-5H-pyrimido[4,5-d]azepin-4-amine] | 190 nM |
| CC(C)c1nc2c(c(NCCc3ccc(Cl)cc3)n1)CCN(c1ncccc1C(F)(F)F)CC2 [Example 124, N-[2-(4-Chlorophenyl)ethyl]-2-(1-methylethyl)-7-[3-(trifluoromethyl)pyridin-2-yl]-6,7,8,9-tetrahydro-5H-pyrimido[4,5-d]azepin-4-amine] | 570 nM |
| CC(C)c1nc2c(c(NCCc3c(Cl)cccc3Cl)n1)CCN(c1ncccc1C(F)(F)F)CC2 [Example 125, N-[2-(2,6-Dichlorophenyl)ethyl]-2-(1-methylethyl)-7-[3-(trifluoromethyl)pyridin-2-yl]-6,7,8,9-tetrahydro-5H-pyrimido[4,5-d]azepin-4-amine] | 610 nM |
| COc1ccccc1CCNc1nc(C(C)C)nc2c1CCN(c1ncccc1C(F)(F)F)CC2 [Example 126, 2-(1-Methylethyl)-N-{2-[2-(methyloxy)phenyl]ethyl}-7-[3-(trifluoromethyl)pyridin-2-yl]-6,7,8,9-tetrahydro-5H-pyrimido[4,5-d]azepin-4-amine] | 1190 nM |
